Assay results: patent US11787850B2, “Peptidic TGF-beta antagonists” (priority 2015, dated 2023)

B1: B: CD109-based peptide (100 aa), SEQ ID NO: 19 (protein)
chain: TMENVVHELELYNTGYYLGMFMNSFAVFQECGLWVLTDANLTKDYIDGVYDNAEYAERFMEENEGHIVDIHDFSLGSSPHVRKHFPETWIWLDTNMGSRIYQEFEVT
modifications: Peptide B
B2: E: CD109-based peptide (67 aa), SEQ ID NO: 20 (protein)
chain: LTKDYIDGVYDNAEYAERFMEENEGHIVDIHDFSLGSSPHVRKHFPETWIWLDTNMGSRIYQEFEVTV
modifications: Peptide E

Experiments:
[1] = system: TGF-β-induced fibronectin and Slug expression in HaCaT cells; test: Western blot for fibronectin and Slug in HaCaT cells with pathway inhibitors; type: cell-based, human
[2] = system: TGF-β-induced EMT in HaCaT cells; test: Immunofluorescence of F-actin and E-cadherin in HaCaT cells with pathway inhibitors; type: cell-based, human; conditions: 0.5 μM SB431542, 1 μM SB203580, 10 μM U0126
Procedure: HaCaT cells transfected with control or CD109 siRNA were treated for 36 hrs with 100 pM TGF-β1, in the presence or absence of 0.5 μM SB431542, 1 μM SB203580 and/or 10 μM U0126. Cells were fixed and stained for F-actin, E-cadherin and with DAPI. […] (FIG. 16B) Densitometry of F-actin staining (mean of n=3 independent experiments±SEM; *P<0.05).
Cells were treated with 0-100 pM TGF-β1, in the presence or absence of 10 μM U0126 (Cell signaling Technologies), 1 μM SB203580, 0.5 μM SB431542 (both from Ascent) for 36-40 hrs. Cells were fixed with 4% paraformaldehyde for 10 min at 37° C. and non-specific sites were blocked with 10% NGS, 0.1% Triton X-100 in PBS. E-cadherin was detected using a FITC-conjugated anti-E-cadherin antibody (BD Biosciences), followed by an AlexaFluor488™-conjugated anti-FITC antibody (Molecular Probes). F-actin was detected using Rhodamin-conjugated phalloidin (Cytoskeleton, Denvers, Colo.) and nuclei were stained with DAPI (Sigma Aldrich). Images were acquired with an Olympus BX60 fluorescent microscope coupled to a QColor3™ camera (Olympus) using Image ProPlus™ 6.0 software.

[3] = Size-exclusion chromatography on Superdex Peptide 10/300GL column; type: physicochemical; conditions: for formation of aggregates by size-exclusion chromatography: peptide in PBS, Superdex Peptide 10/300GL, 0.6 ml/min; for Aggregation?: size-exclusion chromatography, peptide dissolved in PBS
Procedure: Approximately 200 μg of each peptide X (40 amino acids), X-1 (28 amino acids), peptide A (161 amino acids), P11 (11 amino acids), P16 (16 amino acids), P21 (21 amino acids, P16-2 (16 amino acids, scrambled sequence control), X-3 (16 amino acids) and X-4 (11 amino acids) were dissolved in phosphate-buffered saline (PBS) and loaded onto a Superdex Peptide 10/300GL column. The column was eluted with PBS at a flow rate of 0.6 mL/min and eluents were analyzed for peptide content by measuring relative absorbance at a wavelength of 215 nm. (FIGS. 3A and 3B) The data is plotted with relative absorbance (Y-axis) against elution volume (X-axis). Peptides 1-9 are color coded (A—peptides (1) to (5); B (peptides (6) to (9)). As shown on panel A, peptide X (peptide 1, black line) elution profile indicated two major peaks at approximately 8 mL and 11 mL which correspond to molecular weights greater than 12.4 kDa. The theoretical molecular weight of peptide X is 4.7 kDa which is expected to elute from the column at approximately 15 mL. Under the conditions tested, peptide X existed as high molecular weight aggregates with minimal soluble (monomeric) form. On the other hand, P16 (peptide 5, green line) elution profile indicated a broad peak between 14-22 mL which is expected to contain peptides of between 0.1 and 6 kDa and is consistent with its theoretical molecular weight of 2.01 kDa.
FIG. 4 illustrates the standard curve used for size-exclusion chromatography of standard peptides using the Superdex Peptide 10/300 GL column (results provided in FIG. 3). A pool of standard peptides of various molecular weights (1. cytochrome c (Mr 12.384 kDa) 1 mg/mL; 2. aprotinin (Mr 6.512 kDa) 2 mg/mL; 3. vitamin B12 (Mr 1.355 kDa) 0.1 mg/mL; 4. (Gly)3 (Mr 0.189 kDa) 0.1 mg/mL; 5. Gly (Mr 0.075 kDa) 7.8 mg/mL) were subjected to size-exclusion chromatography using the Superdex Peptide 10/300 GL column (flow rate 0.5 ml/min at room temperature, sample volume of 50 μL, eluent 0.05M phosphate, 0.15 M NaCl, ph 7.0). The resulting chromatogram (absorbance at 215 nm (in mAU, left Y axis) and conductivity (in mS/cm, right Y axis, in function of volume of elution (in mL)) indicates the elution profiles of the above peptides with high MW peptides eluting in earlier fractions and lower MW peptides eluting in later fractions as expected. The molecular weights of peptides were plotted against elution volume generating a standard curve (not shown).
More specifically, approximately […] of each peptide X (40 amino acids), X-1 (28 amino acids), peptide A (161 amino acids), P11 (11 amino acids), P16 (16 amino acids), P21 (21 amino acids, P16-2 (16 amino acids, scrambled sequence control), X-3 (16 amino acids) and X-4 (11 amino acids) were dissolved in phosphate-buffered saline (PBS) and loaded onto a Superdex Peptide 10/300GL column. The column was eluted with PBS at a flow rate of 0.6 ml/min and eluants were analyzed for peptide content by measuring relative absorbance at a wavelength of 215 nm. The data were plotted with relative absorbance (Y-axis) against elution volume (X-axis). […] The theoretical molecular weight of peptide X is 4.7 kDa which is expected to elute from the column at approximately 15 mL. […] P16 (peptide 5) elution profile indicated a peak between 14-22 mL which was expected to contain peptides of between 0.1 and 6 kDa and is consistent with its theoretical molecular weight of 2.01 kDa.
More specifically, a pool of standard proteins of various molecular weights were subjected to size-exclusion chromatography using the Superdex Peptide 10/300 GL column. The resulting chromatogram indicated the elution profiles of the peptides with high molecular weight peptides eluting in earlier fractions and lower molecular weight peptides eluting in later fractions as expected. The molecular weights of peptides were plotted against elution volume generating a standard curve (not shown) and was used to calculate molecular weights of the CD109-based peptides. […]

[4] = system: TGF-β1-induced Smad3-driven (CAGA12-lux) transcriptional activity; test: Luciferase reporter assay in HEK293-(CAGA)12 cells; type: cell-based; conditions: 10 nM or 5 nM peptide, 100 pM TGF-β1, 18 hours (FIG. 5)
[5] = system: TGF-β1-induced Smad3-driven (CAGA12-lux) transcriptional activity; test: Luciferase reporter assay in HEK293-(CAGA)12 cells; type: cell-based; conditions: 100 pM TGF-β1, 18 hours
Procedure: FIGS. 5A and 5B illustrate that some small molecular weight CD109-based peptides (Peptide A, P28, P21 and […]) inhibit TGF-β1-induced Smad3-driven transcriptional activity. […] Cell lysates were analyzed for luciferase activity and data are expressed as mean±standard deviation of relative light units (RLU). […] Under the conditions tested, peptide A, P28, P21 and P16 inhibited TGF-β1-induced transcriptional (CAGA12-lux) activity.
FIG. 6 illustrates that the small molecular weight CD109-based peptide P16 (but not P16-2, P11 or X-4) inhibit TGF-β1-induced Smad3-driven transcriptional activity. HEK293 cells stably transfected with the Smad3-responsive CAGA12-lux luciferase reporter were treated for 18 hours without (−) or with (+) […] TGF-β1 in the presence or absence of 10 nM of P16-2 (16 aa scrambled control), P11 (11 aa sequence), P16 (16 aa), X-4 (11 aa) or Tris-buffer (buffer control) as indicated. Cell lysates were analyzed for luciferase activity and data are expressed as mean±standard deviation of luciferase activity. Results are shown as luciferase activity for the peptides used.
FIG. 8 illustrates that DMSO treatment enhances the TGF-β inhibitory activity of Peptide X but not P21 or P16. HEK293 cells stably transfected with the Smad3-responsive CAGA12-lux luciferase reporter were treated for 18 hours without (−) or with (+) 100 pM TGF-β1 in the presence or absence of Peptide X (PX), P21 or P16. The peptides were previously dissolved in Tris buffer and left untreated or treated with DMSO prior to addition to the cells. Addition of Tris buffer or DMSO alone served as additional controls. Cell lysates were analyzed for luciferase activity and data are expressed as mean±standard deviation of luciferase activity. Results are shown as luciferase activity. […] P16 and P21 inhibited TGF-β1-induced CAGA12-lux activity and these effects were not enhanced by DMSO treatment. […]
FIG. 25 is a graph showing the ability of CD109-based peptides to inhibit TGF-β-induced, Smad3-driven transcriptional activity. HEK293 cells stably transfected with the Smad3-responsive CAGA12-lux luciferase reporter were treated for 18 hours without (−) or with (+) 100 pM TGF-b1 in the presence or absence of 10 nM of P16, P16.2, peptide A, P15, P14, P13, P12, P11, peptide X, P21, or 2% NH4OH buffer (buffer control) as indicated. Cell lysates were analyzed for luciferase activity and data are expressed as mean±standard deviation of luciferase activity.
HEK293 cells stably transfected with the Smad3-responsive CAGA12-lux luciferase reporter construct were incubated with dimeric or monomeric forms of peptide A as indicated and treated with 100 pM TGF-b overnight. Cell lysates were analyzed for luciferase activity. Data are presented as fold-activation compared to TGF-b1 treatment alone (scaled to 1.0). M+D, mixture of monomer and dimer.
Luciferase reporter assays were performed using a HEK293-(CAGA)12 cell line that stably expresses a TGF-β/Smad3-responsive (CAGA)12-luciferase reporter gene [Cash et al. 2013]. HEK293-(CAGA)12 cells were grown in 24-well plates to 70-80% confluency and serum-starved overnight. Cells were washed with PBS and treated with or without TGF-β1 in presence or absence of various CD109-based peptides as indicated in the figure legends. Cells were then washed twice with cold PBS and solubilized in 100 μl of Passive Lysis Buffer (Promega) for 30 min at 4° C. The cell lysates were assayed for luciferase and β-galactosidase activities using commercially available kits (BD Biosciences).
HEK293 cells stably transfected with the Smad3-responsive CAGA12-lux luciferase reporter were treated for 18 hours without (−) or with (+) 100 pM TGF-β1 in the presence or absence of 10 nM (FIG. 5A) or 5 nM (FIG. 5B) of peptide A (Pep A, 161 aa), P28 (28 aa peptide), P21 (21 aa peptide), P16 (16 aa peptide), P16.2 scrambled peptide (16 aa, scrambled P16 sequence) or Tris-buffer (negative control for peptides) as indicated. […]

[6] = system: TGF-β-induced migration of squamous cell carcinoma (A431) cells; test: Scratch (wound closure) migration assay, A431 cells; type: cell-based; conditions: 10 nM peptide, 100 pM TGF-β1, 24 hours (FIG. 10)
Procedure: FIG. 10A and FIG. 10B illustrate that peptides B, E and X-1 inhibit TGF-β-induced cellular migration of A431 cells in vitro. Results are shown prior to treatment (0 hr, top panels) and after treatment (24 hr, bottom panels) for each of the peptides used. (See FIG. 2 and Table 1 for the amino acid sequence identity of the peptides).
A431 cells were grown to 80-90% confluence and serum-starved overnight. The next day, cells were scratched with a plastic pipette tip (time 0 hour) and then left untreated or treated for 24 hours with 100 pM TGF-β1 alone or in the presence of P16 as indicated. (FIG. 27A) Digital images were captured at 0 h and 24 h using an EVOS XL Core microscope. (FIG. 27B) Micrographs were subsequently quantitated to determine the percentage of the wound area that had closed following 24 hours in the presence or absence of P16, as indicated.
Cells were scratched with a pipette tip and treated without or with 100 pM TGF-b1 alone or in the presence of 10 nM Peptide A or Peptide A1 (C31S mutant). Pictures were taken at 0 and 24 hrs. Peptide A but not Peptide A1 inhibits TGF-b-induced migration in A431 cells. Peptide A contains monomeric and dimeric forms whereas Peptide A1 contains a C31S mutation to prevent intermolecular disulfide bond formation so that it forms monomers only.
(§1) Squamous cell carcinoma (A431) or breast cancer (MDA-MB-231) cells were grown to 80-90% confluence and serum-starved overnight. The next day, cells were scratched with a plastic pipette tip (time 0 hour) and then left untreated or treated for 24 hours with 100 pM TGF-β1 alone or in the presence of 10 nM peptide B (100 aa), E (67 aa), or X1 (P28, 28 aa). Digital images were captured at 0 h and 24 h (20× magnification) using an EVOS XL Core microscope.

[7] = system: TGF-β-induced migration of breast cancer (MDA-MB-231) cells; test: Scratch migration assay, MDA-MB-231 cells; type: cell-based; conditions: 10 nM peptide, 100 pM TGF-β1, 24 hours (FIG. 11)
Procedure: FIG. 11A and FIG. 11B illustrate that peptides B, E and X-1 inhibit TGF-β-induced cellular migration of MDA-MB-231 cells in vitro. Results are shown prior to treatment (0 hr, top panels) and after treatment (24 hr, bottom panels) for each of the peptides used.
as §1

Row | Molecule | formation of aggregates by size-exclusion chromatography [3] | Aggregation? [3] | inhibition of TGF-β1-induced CAGA12-lux activity [4] | inhibition of TGF-β-induced cellular migration of A431 cells [6] | inhibition of TGF-β-induced cellular migration of MDA-MB-231 cells [7] | further results
1 | C[S+]([O-])c1ccc(-c2nc(-c3ccncc3)c(-c3ccc(F)cc3)[nH]2)cc1 (stereo not drawn) [SB203580] |  |  |  |  |  | fibronectin production ([1]; CD109 siRNA HaCaT cells, 100 pM TGF-β1, 16 hrs, 0.5 μM SB431542, 1 μM SB203580, 10 μM U0126): reduced; Slug expression ([1]; control siRNA and CD109 siRNA HaCaT cells, absence or presence of TGF-β, 1 μM SB203580): increases; effect mediated by CD109 siRNA transfection on actin stress fibers appearance and relocalization of E-cadherin ([2]; 100 pM TGF-β1, 36 hrs): reduces (but does not abrogate); effect on EMT markers in the absence of TGF-β ([2]; data not shown): no effect
2 | ETWIWLDTNMGSRIYQEFEVT [Peptide P21] | did not | Not aggregated | inhibited |  |  | inhibition of TGF-β1-induced CAGA12-lux activity, peptide pre-treated with DMSO ([5]; 0.5% DMSO pre-treatment (FIG. 8)): not enhanced; inhibition of TGF-β1-induced CAGA12-lux activity, peptide in Tris buffer left untreated ([5]; no DMSO (FIG. 8)): inhibited
3 | ETWIWLDTNMGSRIYQEFEVTVPDSITS (Peptide X-1) | formed aggregates | Aggregated | inhibited | inhibit | inhibit | 
4 | B1 |  |  |  | inhibit | inhibit | 
5 | B2 |  |  |  | inhibit | inhibit | 
